# Reference: US20080227764A1 (published 2008)
# Columns and labels:
# [1] = tested on: diabetic neuropathic rats; test: Streptozotocin diabetic neuropathic pain model (Example 1): noxious electrical current, tail flick latency, paw pressure; assay type: in vivo, rat
# Male Wistar rats = test: Sedation: resting time in open field activity monitor; assay type: in vivo, rat
# [2] = tested on: rats with experimental insulin-dependent diabetes mellitus; conditions: intravenous morphine; diabetic rats; cited from earlier work
# [3] = tested on: diabetic neuropathic male Wistar rats; test: Paw pressure (Randall Selitto) anti-nociception in rats with diabetic neuropathy (Example 2); assay type: in vivo, rat
smiles,measurement,setting,value
"COc1ccc2c3c1O[C@H]1C(=O)CC[C@@]4(O)[C@@H](C2)N(C)CC[C@]314 [oxycodone, reference compound]","anti-nociceptive action in diabetic neuropathic pain (ECT, TFL, paw pressure)",[1]; oxycodone 250 μg/kg given alone,minimally responsive
same,resting times compared with saline controls,Male Wistar rats; oxycodone 0.25 and 0.125 mg/kg intraperitoneally,decreased resting times
same,resting times compared with saline controls,"Male Wistar rats; oxycodone doses less than 1.0 mg/kg intraperitoneally, 30 minutes",did not increase resting times
CN1CC[C@]23c4c5ccc(O)c4O[C@H]2[C@@H](O)C=C[C@H]3[C@H]1C5 [morphine],doses inducing dose-dependent anti-nociceptive effect relative to normal rats,[2],twice as high
"CC(=O)OCC(=O)[C@H]1CC[C@H]2[C@@H]3CC[C@H]4C[C@H](O)CC[C@]4(C)[C@H]3C(=O)C[C@]12C [alphadolone acetate, 21-acetoxy-3α-hydroxy-5α-pregnane-11,20-dione]","anti-nociceptive action in diabetic neuropathic pain (ECT, TFL, paw pressure)",[1]; alphadolone acetate 6 mg/kg ip given alone,minimally responsive
same,anti-nociception to paw pressure,[3]; alphadolone acetate 1.0 mg/kg given alone,ineffective
same,reversal of the allodynia and hyperalgesia to paw pressure,"[3]; alphadolone acetate 10 mg/kg intraperitoneally (maximum dose), given alone",80%
same,"anti-nociceptive effects, dose response","[3]; alphadolone acetate given alone intraperitoneally, FIG. 9",dose related anti-nociceptive effects
same,potency in rats with diabetic neuropathy compared with normal weight matched rats,"[3]; alphadolone acetate given alone, the two dose response curves overlay each other",same potency
same,resting times compared with saline controls,Male Wistar rats; alphadolone acetate 60 mg/kg intraperitoneally,decreased resting times
same,resting times compared with saline controls,"Male Wistar rats; alphadolone acetate doses less than 100 mg/kg intraperitoneally, 30 minutes",did not increase resting times
